Experiments:
[1] = test system: diabetic mice induced by STZ; experiment: Blood glucose of diabetic mice induced by streptozotocin (STZ); format: in vivo; conditions: dimethyldiguanide 5 mg/kg for 10 days, blood on 11th day; STZ 150 mg/kg i.p.
Protocol: Sixty male NIH mice (weighed 18-22 g) are randomly divided to control, model, 50, 150, 450 mg/kg 6-mer-treated and 5 mg/kg dimethyldiguanide-treated groups. The mice are injected intraperitoneally with 150 mg/kg STZ except control group at the 1st day. Then the mice are given accordingly drugs consecutively for 10 days and eyeballs are picked out to extract blood on the 11th day. The blood is taken to measure the glucose concentration.

SOD = SOD activity of cerebral cortex and hippocampus of Aβ1-40-induced AD mice; format: in vivo; conditions: HBY 0.2 mg/kg
GSH-PX = GSH-PX activity in cerebral cortex and hippocampus of Aβ1-40-induced AD mice; format: in vivo; conditions: HBY 0.2 mg/kg
Protocol: (§1) Following the behavioral test, rats are decapitated. Cerebral cortex and hippocampus are dissected on ice immediately, and stored at −80° C. after quick freezing in liquid nitrogen for 1 hour. MDA, SOD, GSH-PX, Na^+, K^+-ATPase, AchE and CHAT activities in the brain regions are determined using the respective kits. The homogenates of cerebral cortex and hippocampus are prepared with saline with a final concentration of 10% and 5%. The supernatant were obtained after centrifuging at 3600 rpm to test MDA, CuZn-SOD, GSH-PX, Na^+K^+-ATPase, AchE, and CHAT activities. The activity of ChAT is determined with isotope-labeled method. The other indexes and amount of total proteins are tested with the respective kits supplied by Nanjing Jiancheng Bioengineering Institute.
The GSH-PX activity in cerebral cortex and hippocampus is decreased after usage of Aβ with significant difference to the control group in hippocampus (p<0.05).

ChAT = experiment: Cerebral cortex ChAT activity of Aβ1-40-induced AD mice; format: in vivo; conditions: HBY 0.2 mg/kg
MDA = MDA content of cerebral cortex and hippocampus of Aβ1-40-induced AD mice; format: in vivo; conditions: HBY 0.2 mg/kg
[2] = test system: AD mice induced by Aβ1-40; experiment: Step-through passive avoidance task of AD mice induced by Aβ1-40; format: in vivo; conditions: HBY 0.2 mg/kg
Protocol: (§2) Male Balb/c mice (18-22 g, purchased from Laboratory Centre of Shandong University) are weighed and randomly assigned to six groups as follows: a control group, a model group, a low-concentration (15 mg/kg) 6-mer-treated group, a middle-concentration (30 mg/kg) 6-mer-treated group, a high-concentration (60 mg/kg) 6-mer-treated group, and a Huperzine A-treated (HBY, with a concentration of 0.2 mg/kg) group. The mice were oral administered with corresponding drugs on day 3 after grouping. The drugs were administered once a day consecutively with a dosage of 0.5 ml/20 g until the experiment is completed. The mice of control and model groups were simultaneously administered with an equivalent amount of normal saline.
On the 25th day after Aβ injection, mice are further trained for step-through passive avoidance task. In the task, each mouse is placed in the illuminated compartment of the apparatus, facing away from the dark compartment, and the door is opened, allowing access to the dark compartment. Once the mouse enters the dark compartment, it receives an inescapable electric shock on the feet (36 V) through the stainless steel grid floor. The test is similarly performed after 24 h. The entry time of each mouse into the dark chamber (step-through latency, maximum testing limited to 3 min) and the number of entries into the dark compartment (number of errors) are recorded.
Each group has 8 animals. The data are presented as mean±SE. The symbol # means significant difference compared with the control group (P<0.05). * means significant difference compared with the model group (P<0.05). The step-through latency of Aβ1-40-treated group is shortened (P<0.01) and the error number is increased (P<0.05) compared with that of the control group, indicating the successful establishment of AD mice.

Na+, K+-ATPase = Na+, K+-ATPase activity in cerebral cortex and hippocampus of Aβ1-40-induced AD mice; format: in vivo; conditions: HBY 0.2 mg/kg
Protocol: as §1

[3] = test system: AD mice induced by Aβ1-40; experiment: Morris water maze test of AD mice induced by Aβ1-40; format: in vivo
Protocol: as §2
On the 8th day after drug administration, mice are injected with aged Aβ1-40 except the vehicle group as the method of reference (Jhoo J H et al., β-amyloid (1-42)-induced learning and memory deficits in mice: involvement of oxidative burdens in the hippocampus and cerebral cortex. Behavioural Brain Research (2004) 155: 185-196) to induce the AD model. Aged Aβ1-40 solution is injected into the right cerebral ventricle. […] However, on the 1st day of test, this increased escape latency is shortened in all drug-treated groups except the group treated with 15 mg/kg of 6-mer. And the escape latency of 60 mg/kg 6-mer-treated group has statistical significance compared with that of the model group (P<0.05). On the 2nd and 3rd day of test, the escape latency of all drug-treated groups are shortened, wherein that of 60 mg/kg 6-mer-treated group and HBY-treated group have statistical significance compared with that of the model group (P<0.05).
On the 4th day of Morris water maze test, the original plate is removed and the percentage of time of mice staying at the phase of original plate within 60 s is recorded.

Aβ1-40 = Aβ1-40 (Homo sapiens, UniProt P05067); experiment: Conformation of Aβ1-40 by CD spectra; format: biochemical; conditions: heparin (FIG. 11B)
Protocol: CD spectra (J-[…], JASCO, Japan) of monomeric Aβ1-40 (250 μg/ml in TBS (100 mM Tris, 50 mM NaCl, pH7.4)) incubated at 37° C. for 12 h is mainly characterized by β-sheet secondary structure (FIG. 11A).

Aβ1-40 fibril = Aβ1-40 fibril (Homo sapiens, UniProt P05067); experiment: Destability of preformed Aβ1-40 fibril (TEM); format: biochemical; conditions: Aβ1-40 aged 7 d, then heparin for additional 24 h (FIG. 10B)
Protocol: 1 mg/ml of distilled water-resolved Aβ1-40 is aged at 37° C. for 7d, after which it is exposed to 6-mer for 3 days.

Aβ1-40 fibril, sequence (P05067 672-711 limits assumed): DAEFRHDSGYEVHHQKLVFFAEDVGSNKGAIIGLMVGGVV
Aβ1-40, sequence (P05067 672-711 limits assumed): as above

Compound: CN(C)C(=N)NC(=N)N [Dimethyldiguanide, dimethyldiguanide, reference compound]
- Blood glucose concentration [1]: 201.6 ± 58.9 mg/dL

Compound: C/C=C1\[C@H]2C=C(C)C[C@]1(N)c1ccc(=O)[nH]c1C2 [HBY, Huperzine A, reference compound]
- SOD activity (NU/mg prot.) cerebral cortex (SOD; cerebral cortex): 48.95 ± 2.13 NU/mg prot.
- SOD activity (NU/mg prot.) hippocampus (SOD; hippocampus): 69.91 ± 6.51 NU/mg prot.
- GSH-PX (U/mg prot.) cerebral cortex (GSH-PX; cerebral cortex): 8.85 ± 1.33 U/mg prot.
- GSH-PX (U/mg prot.) hippocampus (GSH-PX; hippocampus): 5.29 ± 0.99 U/mg prot.
- ChAT activity (pmol/mg prot./min) (ChAT): 100.70 ± 5.99 pmol/mg prot./min
- MDA content (nmol/ml) cerebral cortex (MDA; cerebral cortex): 1.61 ± 0.13 nmol/mL
- MDA content (nmol/ml) hippocampus (MDA; hippocampus): 2.26 ± 0.39 nmol/mL
- step-through latency ([2]; vs model group (FIG. 5)): significantly prolonged
- number of errors ([2]; vs model group (FIG. 6)): significantly reduced
- ATPase activity (μmol Pi/mg prot./hour) cerebral cortex (Na+, K+-ATPase; cerebral cortex): 0.91 ± 0.05 μmol Pi/mg prot./hour
- ATPase activity (μmol Pi/mg prot./hour) hippocampus (Na+, K+-ATPase; hippocampus): 2.35 ± 10.43 μmol Pi/mg prot./hour
- Escape latency (s) 1st day ([3]; HBY 0.2 mg/kg oral once a day, 1st day of test): 76.29 ± 9.74 s
- Escape latency (s) 2nd day ([3]; HBY 0.2 mg/kg oral once a day, 2nd day of test): 64.58 ± 10.36 s
- Escape latency (s) 3rd day ([3]; HBY 0.2 mg/kg oral once a day, 3rd day of test): 63.83 ± 10.12 s
- Latency bias(%) ([3]; probe trial, 4th day, within 60 s, HBY 0.2 mg/kg): 22.18 ± 5.93%

Compound: heparin [reference compound]
- conformational transition of Aβ1-40 to β-sheet structure (CD) (Aβ1-40): significantly accelerates the conformational transition to β-sheet structure
- effect on preformed Aβ1-40 fibers (TEM) (Aβ1-40 fibril): become much denser and longer

From patent US8835403B2, “Algin oligosaccharides and the derivatives thereof as well as the manufacture and the use of the same” (priority 2004, dated 2014)
